# Results: article PMC6211260 (Journal of Enzyme Inhibition and Medicinal Chemistry, 2018)
# Experiments:
# Assay type in all cases: cell-based
# T-47D cell line = test: NCI-60 single-dose screening; details: 10 µM
# Procedure: (§1) Screening against the cancer cell lines was carried out at the National Cancer Institute (NCI, Bethesda, Maryland, USA) applying the standard protocol of the NCI[22].
# (§2) The final target compounds were submitted to the National Cancer Institute (NCI), Maryland, USA[23]. Thirty-one compounds were selected to be tested over 60 cell lines at single dose 10 µM.
# NCI-60 cell line panel = test: NCI-60 single-dose (10 µM) antiproliferative screening, mean over panel; details: single-dose 10 µM; for inhibition at 10 µM: 60-cancer cell line screening; for number of cell lines with more than 100% inhibition: NCI-60 panel
# Procedure: as §1, §2
# [1] = tested on: Colo 205 colon cancer cell line; test: NCI-60 single-dose screening
# Procedure: as §1, §2
# [2] = tested on: HCC-116 colon cancer cell line; test: NCI-60 single-dose screening; details: read-out: per cent inhibition
# Procedure: as §1, §2
# [3] = tested on: SF-295 CNS cancer cell line; test: NCI-60 single-dose screening; details: Homo sapiens, read-out: per cent inhibition
# Procedure: as §1, §2
# CNS cancer cell lines = test: NCI five-dose testing, subpanel mean; details: subpanel IV: CNS cancer
# Procedure: as §1
# Leukaemia cell lines = test: NCI five-dose testing, subpanel mean; details: subpanel I: Leukaemia
# Procedure: as §1
# breast cancer cell lines = test: NCI five-dose testing, subpanel mean; details: subpanel IX: breast cancer
# Procedure: as §1
# colon cancer cell lines = test: NCI five-dose testing, subpanel mean; details: subpanel III: colon cancer
# Procedure: as §1
# melanoma cell lines = test: NCI five-dose testing, subpanel mean; details: subpanel V: melanoma
# Procedure: as §1
# [4] = tested on: non-small cell lung cancer cell lines; test: NCI five-dose testing, subpanel mean; details: subpanel II: non-small cell lung cancer
# Procedure: as §1
# [5] = tested on: ovarian cancer cell lines; test: NCI five-dose testing, subpanel mean; details: subpanel VI: ovarian cancer
# Procedure: as §1
# [6] = tested on: prostate cancer cell lines; test: NCI five-dose testing, subpanel mean; details: subpanel VIII: prostate cancer
# Procedure: as §1
# renal cancer cell lines = test: NCI five-dose testing, subpanel mean; details: subpanel VII: renal cancer
# Procedure: as §1
# [7] = tested on: A498 renal cancer cell line; test: NCI five-dose testing; details: Homo sapiens; for IC50 / IC (TGI): A498; for LC50 (lethal concentration 50%): A498, read-out: LD50 (lethal dose 50); for IC (TGI): read-out: TGI (total growth inhibition concentration)
# Procedure: as §1
# [8] = tested on: HOP-92 non-small cell lung cancer cell line; test: NCI five-dose testing; details: Homo sapiens; for IC50: HOP-92; for IC (TGI): HOP-92, HOP-92, read-out: TGI (total growth inhibition concentration); for LD50 (lethal dose 50): HOP-92, read-out: LD50 (lethal dose 50)
# Procedure: as §1
# [9] = tested on: HT-29 colon cancer cell line; test: NCI five-dose testing; details: Homo sapiens; for CC50: HT-29, read-out: LD50 (lethal dose 50); for IC50 / IC (TGI): HT-29; for IC50: read-out: IC50; for IC (TGI): read-out: TGI (total growth inhibition concentration)
# Procedure: as §1
# [10] = tested on: K-562 leukaemia cell line; test: NCI five-dose testing; details: Homo sapiens; for CC50: K562, read-out: LD50 (lethal dose 50); for IC50 / IC (TGI): K562, K-562; for IC (TGI): read-out: TGI (total growth inhibition concentration)
# Procedure: as §1
# [11] = tested on: MDA-MB-468 breast cancer cell line; test: NCI five-dose testing; details: Homo sapiens; for IC50 / IC (TGI): MDA-MB-468; for CC50: MDA-MB-468, read-out: LD50 (lethal dose 50); for IC (TGI): read-out: TGI (total growth inhibition concentration)
# Procedure: as §1
# [12] = tested on: OVCAR-4 ovarian cancer cell line; test: NCI five-dose testing; details: Homo sapiens; for IC50 / IC (TGI): OVCAR-4; for LC50 (lethal concentration 50): OVCAR-4, read-out: LD50 (lethal dose 50); for IC (TGI): read-out: TGI (total growth inhibition concentration)
# Procedure: as §1
# [13] = tested on: PC-3 prostate cancer cell line; test: NCI five-dose testing; details: Homo sapiens; for LC50 (lethal concentration 50): PC-3, read-out: LD50 (lethal dose 50); for IC50 / IC (TGI): PC-3; for IC50: read-out: IC50; for IC (TGI): read-out: TGI (total growth inhibition concentration)
# Procedure: as §1
# [14] = tested on: SK-MEL-5 melanoma cell line; test: NCI five-dose testing; details: Homo sapiens; for IC50 / IC (TGI): SK-MEL-5; for LC50 (lethal concentration 50): SK-MEL-5, read-out: LD50 (lethal dose 50); for IC (TGI): read-out: TGI (total growth inhibition concentration)
# Procedure: as §1
# [15] = tested on: U251 CNS cancer cell line; test: NCI five-dose testing; details: Homo sapiens; for CC50: U-251, read-out: LD50 (lethal dose 50); for IC50 / IC (TGI): U-251, U251; for IC50: read-out: IC50; for IC (TGI): read-out: TGI (total growth inhibition concentration)
# Procedure: as §1
# [16] = tested on: HT29 colon cancer cell line; test: NCI-60 single-dose screening; details: 10 µM
# Procedure: as §1, §2
# [17] = tested on: SK-MEL-5 melanoma cell line; test: NCI-60 single-dose screening; details: 10 µM
# Procedure: as §1, §2
structure (smiles),measurement,setting,value
"COc1cccc(-c2nn(-c3ccccc3)cc2-c2ccnc(NCCCNS(=O)(=O)c3ccc(Br)cc3)c2)c1 [Compound 2b, 4-Bromo-N-(3-((4-(3-(3-methoxyphenyl)-1-phenyl-1H-pyrazol-4-yl)pyridin-2-yl)amino)propyl) benzenesulfonamide]",per cent inhibition,T-47D cell line,83.30%
"O=S(=O)(NCCCNc1cc(-c2cn(-c3ccccc3)nc2-c2cccc(O)c2)ccn1)c1ccc(Br)cc1 [Compound 2k, 4-Bromo-N-(3-((4-(3-(3-hydroxyphenyl)-1-phenyl-1H-pyrazol-4-yl)pyridin-2-yl)amino)propyl)benzenesulfonamide]",inhibition at 10 µM,NCI-60 cell line panel,90.6%
same,number of cell lines with more than 100% inhibition,NCI-60 cell line panel,13
same,inhibition at 10 µM,"[1]; Homo sapiens, read-out: per cent inhibition",168%
same,inhibition at 10 µM,[2],140%
same,inhibition at 10 µM,[3],147%
same,IC50,CNS cancer cell lines,1.7 µM
same,IC50,Leukaemia cell lines,1.55 µM
same,IC50,breast cancer cell lines,1.11 µM
same,IC50,colon cancer cell lines,1.48 µM
same,IC50,melanoma cell lines,1.62 µM
same,IC50,[4],1.96 µM
same,IC50,[5],2.11 µM
same,IC50,[6],2.03 µM
same,IC50,renal cancer cell lines,1.89 µM
same,IC50,[7],0.38 µM
same,LC50 (lethal concentration 50%),[7],11.9 µM
same,IC (TGI),[7],2.8 µM
same,IC50,[8],1.83 µM
same,IC (TGI),[8],7.5 µM
same,LD50 (lethal dose 50),[8],> 100 µM
same,CC50,[9],7.1 µM
same,IC50,[9],0.63 µM
same,IC (TGI),[9],2.3 µM
same,CC50,[10],> 100 µM
same,IC50,[10],0.44 µM
same,IC (TGI),[10],2.8 µM
same,IC50,[11],1.54 µM
same,CC50,[11],> 100 µM
same,IC (TGI),[11],5.6 µM
same,IC50,[12],1.66 µM
same,LC50 (lethal concentration 50),[12],> 100 µM
same,IC (TGI),[12],8.6 µM
same,LC50 (lethal concentration 50),[13],> 100 µM
same,IC50,[13],2.11 µM
same,IC (TGI),[13],7.8 µM
same,IC50,[14],1.27 µM
same,LC50 (lethal concentration 50),[14],5.3 µM
same,IC (TGI),[14],2.6 µM
same,CC50,[15],19.9 µM
same,IC50,[15],1.21 µM
same,IC (TGI),[15],4.4 µM
"COc1cccc(-c2nn(-c3ccccc3)cc2-c2ccnc(NCCCNS(=O)(=O)c3ccc(C(F)(F)F)cc3)c2)c1 [Compound 2g, N-(3-((4-(3-(3-Methoxyphenyl)-1-phenyl-1H-pyrazol-4-yl)pyridin-2-yl)amino)propyl)-4-(trifluoromethyl)benzenesulfonamide]",inhibition at 10 µM,NCI-60 cell line panel,76.5%
same,number of cell lines with more than 100% inhibition,NCI-60 cell line panel,13
same,per cent inhibition,[1]; 10 µM,lethal effect
same,per cent inhibition,[16],lethal effect
same,per cent inhibition,[17],lethal effect
same,IC50,CNS cancer cell lines,5.28 µM
same,IC50,Leukaemia cell lines,3.35 µM
same,IC50,breast cancer cell lines,4.05 µM
same,IC50,colon cancer cell lines,4.91 µM
same,IC50,melanoma cell lines,4.94 µM
same,IC50,[4],6.36 µM
same,IC50,[5],6.1 µM
same,IC50,[6],13 µM
same,IC50,renal cancer cell lines,5.32 µM
same,IC50,[7],3.8 µM
same,LC50 (lethal concentration 50%),[7],> 100 µM
same,IC (TGI),[7],> 100 µM
same,IC50,[8],3.68 µM
same,IC (TGI),[8],> 100 µM
same,LD50 (lethal dose 50),[8],> 100 µM
same,CC50,[9],> 100 µM
same,IC50,[9],3.21 µM
same,IC (TGI),[9],10 µM
same,CC50,[10],> 100 µM
same,IC50,[10],3.06 µM
same,IC (TGI),[10],> 100 µM
same,IC50,[11],3.11 µM
same,CC50,[11],> 100 µM
same,IC (TGI),[11],> 100 µM
same,IC50,[12],4.36 µM
same,LC50 (lethal concentration 50),[12],> 100 µM
same,IC (TGI),[12],> 100 µM
same,LC50 (lethal concentration 50),[13],> 100 µM
same,IC50,[13],3.36 µM
same,IC (TGI),[13],> 100 µM
same,IC50,[14],2.18 µM
same,LC50 (lethal concentration 50),[14],23.1 µM
same,IC (TGI),[14],5 µM
same,CC50,[15],> 100 µM
same,IC50,[15],5.63 µM
same,IC (TGI),[15],> 100 µM
